Data as given in patent publication US9139609B2, “C-4″ position substituted macrolide derivative” (priority 2011, dated 2015).
Values after ≈ are worked out from the molar mass of the structure shown.

Assays:
Format in all cases: cell-based
[1] = tested on: Streptococcus pneumoniae ATCC49619; assay: In vitro antibacterial activity, microbroth dilution method (CLSI method), test bacterium B; details: read-out: MIC (minimum inhibitory concentration), test bacterium B
Method: (§1) In vitro antibacterial activities of the compounds of the present invention against various test bacteria were measured according to the microbroth dilution method (CLSI method). Among them, the bacteria C, D and E are erythromycin resistant bacteria. The MIC values (minimum inhibitory concentration, μg/ml) for the test bacteria A and B are exemplified in Table 22.

[2] = tested on: Haemophilus infuenzae ATCC43095; assay: In vitro antibacterial activity, microbroth dilution method (CLSI method), test bacterium A; details: read-out: MIC (minimum inhibitory concentration), test bacterium A
Method: as §1

[3] = tested on: Mycoplasma pneumoniae MSC04933; assay: In vitro antibacterial activity, microbroth dilution method (CLSI method), test bacterium E (erythromycin resistant); details: read-out: MIC (minimum inhibitory concentration), test bacterium E
Method: as §1

[4] = tested on: Streptococcus pneumoniae ATCC700904; assay: In vitro antibacterial activity, microbroth dilution method (CLSI method), test bacterium C (erythromycin resistant); details: read-out: MIC (minimum inhibitory concentration), test bacterium C
Method: as §1

[5] = tested on: Streptococcus pyogenes M808; assay: In vitro antibacterial activity, microbroth dilution method (CLSI method), test bacterium D (erythromycin resistant); details: read-out: MIC (minimum inhibitory concentration), test bacterium D
Method: as §1

SMILES	MIC [1] [µg/mL]	MIC [2] [µg/mL]	MIC [3] [µg/mL]	MIC [4] [µg/mL]	MIC [5] [µg/mL]
CC[C@H]1OC(=O)[C@H](C)[C@@H](O[C@H]2C[C@@](C)(OC)[C@@](O)(CN(CC)CCN(CC)CC)[C@H](C)O2)[C@H](C)[C@@H](O[C@@H]2O[C@H](C)C[C@H](N(C)C)[C@H]2O)[C@@](C)(OC)C[C@@H](C)C(=O)[C@H](C)[C@H]2N(CCNS(C)(=O)=O)C(=O)O[C@]12C [Example413]	0.03 (≈ 0.0286 µM)	4 (≈ 3.81 µM)			
CC[C@H]1OC(=O)[C@H](C)[C@@H](O[C@H]2C[C@@](C)(OC)[C@@](O)(CN(C)CCN(CC)C3CCC3)[C@H](C)O2)[C@H](C)[C@@H](O[C@@H]2O[C@H](C)C[C@H](N(C)C)[C@H]2O)[C@@](C)(OC)C[C@@H](C)C(=O)[C@H](C)[C@H]2N(CCCS(C)(=O)=O)C(=O)O[C@]12C [Example418]	0.03 (≈ 0.0283 µM)	4 (≈ 3.77 µM)			
CC[C@H]1OC(=O)[C@H](C)[C@@H](O[C@H]2C[C@@](C)(OC)[C@@](O)(CN(C)CCN(CC)CC)[C@H](C)O2)[C@H](C)[C@@H](O[C@@H]2O[C@H](C)C[C@H](N(C)C)[C@H]2O)[C@@](C)(OC)C[C@@H](C)C(=O)[C@H](C)[C@H]2N(CCN3CCNS3(=O)=O)C(=O)O[C@]12C [Example440]	0.03 (≈ 0.0282 µM)	4 (≈ 3.76 µM)			
CC[C@H]1OC(=O)[C@H](C)[C@@H](O[C@H]2C[C@@](C)(OC)[C@@](O)(CN(CCOC)CCN(CC)CC)[C@H](C)O2)[C@H](C)[C@@H](O[C@@H]2O[C@H](C)C[C@H](N(C)C)[C@H]2O)[C@@](C)(OC)C[C@@H](C)C(=O)[C@H](C)[C@H]2N(CCNS(C)(=O)=O)C(=O)O[C@]12C [Example443]	0.03 (≈ 0.0278 µM)	4 (≈ 3.7 µM)			
CC[C@H]1OC(=O)[C@H](C)[C@@H](O[C@H]2C[C@@](C)(OC)[C@@](O)(CN(C)CCN3C4CCC3CC4)[C@H](C)O2)[C@H](C)[C@@H](O[C@@H]2O[C@H](C)C[C@H](N(C)C)[C@H]2O)[C@@](C)(OC)C[C@@H](C)C(=O)[C@H](C)[C@H]2N(CCNS(C)(=O)=O)C(=O)O[C@]12C [Example446]	0.03 (≈ 0.0283 µM)	4 (≈ 3.77 µM)			
CC[C@H]1OC(=O)[C@H](C)[C@@H](O[C@H]2C[C@@](C)(OC)[C@@](O)(CN(C)CCN(C(C)C)C(C)C)[C@H](C)O2)[C@H](C)[C@@H](O[C@@H]2O[C@H](C)C[C@H](N(C)C)[C@H]2O)[C@@](C)(OC)C[C@@H](C)C(=O)[C@H](C)[C@H]2N(CCS(=O)(=O)NC)C(=O)O[C@]12C [Example451]	0.03 (≈ 0.0282 µM)	4 (≈ 3.76 µM)			
CC[C@H]1OC(=O)[C@H](C)[C@@H](O[C@H]2C[C@@](C)(OC)[C@@](O)(CN(C)CCN(C(C)C)C(C)C)[C@H](C)O2)[C@H](C)[C@@H](O[C@@H]2O[C@H](C)C[C@H](N(C)C)[C@H]2O)[C@@](C)(OC)C[C@@H](C)C(=O)[C@H](C)[C@H]2N(CCOS(N)(=O)=O)C(=O)O[C@]12C [Example456]	0.03 (≈ 0.0281 µM)	2 (≈ 1.88 µM)			
CC[C@H]1OC(=O)[C@H](C)[C@@H](O[C@H]2C[C@@](C)(OC)[C@@](O)(CN(C)CCN(CC)CC)[C@H](C)O2)[C@H](C)[C@@H](O[C@@H]2O[C@H](C)C[C@H](N(C)C)[C@H]2O)[C@@](C)(OC)C[C@@H](C)C(=O)[C@H](C)[C@H]2NC(=O)O[C@@]21C [Example 299]			0.5 to 1 (≈ 0.546 to 1.09 µM)	0.12 to 0.25 (≈ 0.131 to 0.273 µM)	≥ 16
CC[C@H]1OC(=O)[C@H](C)[C@@H](O[C@H]2C[C@@](C)(OC)[C@@](O)(CN(C)CCN(CC)CC)[C@H](C)O2)[C@H](C)[C@@H](O[C@@H]2O[C@H](C)C[C@H](N(C)C)[C@H]2O)[C@@](C)(OC)C[C@@H](C)C(=NO)[C@H](C)[C@H]2N(CCNS(C)(=O)=O)C(=O)O[C@]12C [Example 334]			≤ 0.25	0.12 to 0.25 (≈ 0.114 to 0.238 µM)	4 to 8 (≈ 3.8 to 7.61 µM)
CC[C@H]1OC(=O)[C@H](C)[C@@H](O[C@H]2C[C@@](C)(OC)[C@@](O)(CN(C)CCN(C)C(C)(C)c3ccccc3OC)[C@H](C)O2)[C@H](C)[C@@H](O[C@@H]2O[C@H](C)C[C@H](N(C)C)[C@H]2O)[C@@](C)(OC)C[C@@H](C)C2=NCCN3C(=O)O[C@@]1(C)[C@H]3[C@H]2C [Example 338]			≤ 0.25	0.12 to 0.25 (≈ 0.115 to 0.239 µM)	≤ 2
CC[C@H]1OC(=O)[C@H](C)[C@@H](O[C@H]2C[C@@](C)(OC)[C@@](O)(CN(C)CCN(C)C(C)(C)c3ccccc3OC)[C@H](C)O2)[C@H](C)[C@@H](O[C@@H]2O[C@H](C)C[C@H](N(C)C)[C@H]2O)[C@@](C)(OC)C[C@@H](C)[C@@H]2NCCN3C(=O)O[C@@]1(C)[C@H]3[C@@H]2C [Example 340]			≤ 0.25	0.12 to 0.25 (≈ 0.114 to 0.238 µM)	≤ 2
CC[C@H]1OC(=O)[C@H](C)[C@@H](O[C@H]2C[C@@](C)(OC)[C@@](O)(CN(C)CCN(C(C)C)C(C)C)[C@H](C)O2)[C@H](C)[C@@H](O[C@@H]2O[C@H](C)C[C@H](N(C)C)[C@H]2O)[C@@](C)(OC)C[C@@H](C)C(=NO)[C@H](C)[C@H]2N(CCNS(C)(=O)=O)C(=O)O[C@]12C [Example 458]	0.06 (≈ 0.0556 µM)	4 (≈ 3.71 µM)		0.12 to 0.25 (≈ 0.111 to 0.232 µM)	4 to 8 (≈ 3.71 to 7.41 µM)
